Consider two compounds from PMC9583322, “Vicinal Diaryl-Substituted Isoxazole and Pyrazole Derivatives with In Vitro Growth Inhibitory and In Vivo Antitumor Activity” (ACS Omega, 2022).

For one experiment, the system named is Huh7. Briefly: SRB cytotoxicity assay. Particulars: 72 h treatment. It is filed as cell-based, human. An outline of the steps:
(§1)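 Cells seeded 24 h before 72 h compound exposure, 40 to 2.5 μM (or 2.5 to 0.15 μM for compounds below 2.5 μM). TCA-fixed, stained with sulforhodamine B, absorbance at 515 nm. IC50 relative to DMSO control; fits with R^2 above 0.9 accepted.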

The next experiment deals with MCF7. Nature of the experiment: SRB cytotoxicity assay. It is filed as cell-based, human. As to conditions: 72 h treatment. An outline of the steps:
as §1

The test system of another experiment is Mahlavu. Briefly: SRB cytotoxicity assay. It counts as cell-based, human. As to conditions: Homo sapiens, Mahlavu, 72 h, 72 h treatment. The method in brief: as §1
In a further experiment the test system is MDA-MB231. Nature of the experiment: SRB cytotoxicity assay. It is filed as cell-based. As to conditions: Homo sapiens, MDA-MB-231, 72 h treatment. As for the experimental part: (§2) HepG2, FOCUS, Hep3B, Mahlavu, Huh7, Hep40, and PLC-PRF-5 hepatocellular carcinoma cells; MCF-7, MDA-MB-231, MDA-MB-468, SKBR3, and ZR-75 breast cancer cells; and normal-like epithelial MCF-10A breast cells were cultured in low-glucose Dulbecco’s modified Eagle’s medium (DMEM) (Biological Industries-BI) supplemented with 10% fetal bovine serum (FBS) (Gibco/Thermo Fisher Scientific), 2 mM L-Glutamine (Gibco/Thermo Fisher Scientific), 100 Units/mL Penicillin/Streptomycin, and 0.1 mM non-essential amino acid (Gibco/Thermo Fisher Scientific). SNU475 hepatocellular carcinoma cells were maintained in RPMI (Biological Industries-BI) supplemented with 10% fetal bovine serum (FBS) (Gibco/Thermo Fisher Scientific), L-Glutamine (Gibco/Thermo Fisher Scientific), and 100 Units/mL Penicillin/Streptomycin, while ZR-75 breast cancer cells were cultured RPMI (Biological Industries-BI) supplemented with 10% fetal bovine serum (FBS) (Gibco/Thermo Fisher Scientific), 1× sodium pyruvate, and %4.5 glucose. Normal-like MCF-10A breast cells were sustained in DMEM/HAM’S F12 (Hyclone) supplemented with 10% fetal bovine serum (FBS) (Gibco/Thermo Fisher Scientific), EGF (20 ng/mL), Hydrocortisone ([…]), cholera toxin (100 ng/mL), insulin (10 μg/mL), and 100 Units/mL Penicillin/Streptomycin. The cells were cultivated at 37 °C in a humidified incubator under 5% CO2.
(§3) Mahlavu, FOCUS, SNU475 (1000 cell/well in 150 μL/well); Huh7, MCF7 (2500 cell/well in 150 μL/well); HepG2, Hep3B, SKBR3 (3000 cell/well in 150 μL/well); PLC-PRF-5, Hep40 (5000 cell/well in 150 μL/well); MDA-MB-231, MDA-MB-468, MCF10A (6000 cell/well in 150 μL/well); and ZR-75 (7500 cell/well in 150 μL/well) were cultured in 96-well plates and were inoculated in an incubator for 24 hours. The compounds were dissolved in dimethyl sulfoxide (DMSO) (Sigma, St Louis, MO) as a 20 mM stock solution. The treatment of cells with the compounds was done in a concentration range starting from 40 to 2.5 μM. The compounds which were below 2.5 μM were tested in a concentration range from 2.5 to 0.15 μM. End of the 72h compound treatment, the cells were fixed using 10% (v/v) trichloroacetic acid (MERCK) for an hour and washed with ddH2O, and left for air-drying. The fixed plates were stained with 50 μL of sulforhodamine B (SRB) solution (Sigma) at RT for 10 min. To remove unbound SRB dye, acetic acid was used to wash cells three times and left for drying. The protein-bound SRB was solubilized with 10 mM Tris-base (Sigma) and their absorbance was measured with a 96-well plate reader at 515 nm wavelength (ELx800, Biotek). The IC50 values of compounds were calculated in comparison with control group DMSO. Data with R^2 values larger than 0.9 are considered significant.

For another experiment, the system named is MDA-MB468. Nature of the experiment: SRB cytotoxicity assay. It counts as cell-based. Particulars: Homo sapiens, MDA-MB-468, 72 h treatment. As for the experimental part:
as §2, §3

In another experiment the test system is SNU475. Nature of the experiment: SRB cytotoxicity assay. Particulars: Homo sapiens, SNU-475, 72 h treatment. It is filed as cell-based. As to the method: as §2, §3
The subject of another experiment is SKBR3. Briefly: SRB cytotoxicity assay. It counts as cell-based. Particulars: Homo sapiens, SK-BR-3, 72 h treatment. As to the method: as §2, §3
Another experiment has as its system Hep40. Nature of the experiment: SRB cytotoxicity assay. As to conditions: Homo sapiens, 72 h treatment. It counts as cell-based. As to the method:
as §2, §3

In the next experiment the test system is FOCUS. Nature of the experiment: SRB cytotoxicity assay. It counts as cell-based. As to conditions: Homo sapiens, 72 h treatment. As to the method:
as §2, §3

The next experiment deals with Hep3B. Briefly: SRB cytotoxicity assay. It counts as cell-based. As to conditions: Homo sapiens, 72 h treatment. As for the experimental part:
as §2, §3

The subject of the next experiment is ZR75. Briefly: SRB cytotoxicity assay. It counts as cell-based. As to conditions: Homo sapiens, 72 h treatment. As to the method: as §2, §3
The test system of the next experiment is PLC-PRF-5. Briefly: SRB cytotoxicity assay. It counts as cell-based. As to conditions: Homo sapiens, 72 h treatment. As to the method:
as §2, §3

The next experiment concerns HepG2. Briefly: SRB cytotoxicity assay. Particulars: Homo sapiens, 72 h treatment. It is filed as cell-based. As to the method: as §2, §3
The subject of experiment [1] is Mahlavu, Huh7, MCF7, and MDA-MB-231 cells. Briefly: Hoechst nuclear staining for cell death. Particulars: IC100 concentrations, 48 h. It counts as cell-based, human. As to the method:
Mahlavu, Huh7, MCF7, and MDA-MB-231 cells were cultured onto cover slides in six-well plates for 24 h according to their cell growth rate. […] The 1× PBS was used to wash the cells three times, and the cells were fixed with 100% ice-cold methanol. Then, the cells were stained with 1 μg/mL Hoechst (#33258, Sigma). The cells were analyzed under the fluorescence microscope (Nikon Eclipse 50i).

Another experiment deals with MDA-MB-231 xenografts. Briefly: MDA-MB-231 breast cancer xenograft. It is filed as in vivo, mouse. Particulars: nude mice, 40 mg/kg oral, twice a week, 4 weeks. As for the experimental part: Mahlavu cells (10 × 10^6 cells/mouse) prepared in 150 μL of DMEM were injected subcutaneously to the flank of 6–8 weeks old male athymic nude mice, while MDA-MB-231 cells (2 × 10^6cells/mouse) in 1:1 DMEM and matrigel were injected into mammary fat pad (MFP) of 6–8 weeks old female athymic nude mice. Tumor volume and mouse weight were measured twice a week using calipers. When the tumor volume reached ∼150 mm^3, xenografts were randomized into groups (6 mice per group), and the mice were administered subsequently with 11 or 85 (40 mg/kg in 0.5% hydroxypropyl methylcellulose plus 1% Tween 80) or vehicle by gavage feeding (3–4 days/week) for 4 weeks. The mice were sacrificed 30 days after initiation of the compound treatment and tumors were collected. Two-way ANOVA was performed for statistical significance by GraphPad Prism. All of the mice were maintained under a temperature-controlled environment with a 12 h light/dark cycle and received a standard diet and water ad libitum.

Another experiment deals with TK-10. Nature of the experiment: NCI-60 single-dose screen. It is filed as cell-based. Particulars: Homo sapiens, TK-10, Renal Cancer, read-out: % Growth Inhibition (GI%). As for the experimental part: (§4) Moreover, in vitro single-dose anticancer screening of 11 and 85 at 10 μM was performed utilizing the stable panel of 60 cell lines comprising 9 different cancer types at the National Cancer Institute (NCI) under the Developmental Therapeutics Program (Table S1).[31]

In the next experiment the test system is MDA-MB-435. Nature of the experiment: NCI-60 single-dose screen. As to conditions: Homo sapiens, MDA-MB-435, Melanoma, read-out: % Growth Inhibition (GI%). It counts as cell-based. As for the experimental part:
as §4

For the compound `Cc1ccccc1COc1ccc(-c2noc(C)c2-c2ccc(Cl)cc2)cc1` [compound 11, 4-(4-Chlorophenyl)-5-methyl-3-(4-((2-methylbenzyl)oxy)phenyl)isoxazole], the half-maximal inhibitory concentration (IC50) with Huh7 (Homo sapiens, Huh-7, 72 h) came out at 1.3 µM; in the experiment with MCF7 (Homo sapiens, MCF7, 72 h), 3.8 µM; in the experiment with Mahlavu, 3.2 µM; in the experiment with MDA-MB231, 2 µM; in the experiment with MDA-MB468, 2.8 µM; with SNU475, 1.7 µM. Besides, the 50% inhibitory concentration (IC50) with SKBR3 stood at 3.5 µM; with Hep40, 8.6 µM; with FOCUS, 2.1 µM; in the experiment with Hep3B, 3 µM; in the experiment on ZR75, 7.6 µM; with PLC-PRF-5, 9.5 µM. In the experiment with HepG2, this compound showed an IC50 of 2.1 µM. The “Nuclear morphology by Hoechst staining” value in experiment [1] is recorded as “Apoptotic bodies were detectable”. Further, the “decrease in tumor volumes as compared to the control group” value with MDA-MB-231 xenografts was around 50%. The inhibition at 10 µM with TK-10 came out at 15.7%; with MDA-MB-435 it was 100%.
Consider `Cc1ccccc1COc1ccc(-c2ccnn2-c2ccc(Cl)cc2)cc1` [compound 85, 1-(4-Chlorophenyl)-5-(4-((2-methylbenzyl)oxy)phenyl)-1H-pyrazole], for which the half-inhibitory concentration (IC50) is 0.7 µM with Huh7; below 1 µM with Huh7 (Homo sapiens, Huh-7, 72 h); 0.9 µM in the experiment with MCF7; below 1 µM with MCF7 (Homo sapiens, MCF7, 72 h); 3.7 µM in the experiment with Mahlavu; 0.9 µM with MDA-MB231. Also, the IC50 amounted to 1 µM in the experiment on MDA-MB468; 1.5 µM with SNU475; 1.8 µM in the experiment on SKBR3; 5.2 µM in the experiment on Hep40; 2.4 µM in the experiment on FOCUS; 7.9 µM in the experiment on Hep3B. The IC50 in the experiment on ZR75 was 5.5 µM; in the experiment on PLC-PRF-5 it was 6.5 µM; in the experiment with HepG2, 1.4 µM. Also, the “Nuclear morphology by Hoechst staining” value in experiment [1] is “Apoptotic bodies were detectable”. The “decrease in tumor volumes as compared to the control group” value with MDA-MB-231 xenografts was around 50%. Moreover, the results for the inhibition at 10 µM in the experiment with TK-10 and in the experiment with MDA-MB-435 were 16.2% and 99.2%, respectively.
